“And” between values parts separate entries of the source, which are not always exact repeats. Equal values may be shown once.
Key:
[1] = target: T1, mMOR (Mus musculus, UniProt P42866); assay: [125I]BNtxA radioligand competition binding, mouse MOR; conditions: mean ± SEM, n = 3; [125I]BNtxA; read-out: Ki ± SEM mMOR
T1 construct: signal peptide (heterologous, not specified) (N); expressed in transfected cells; pcDNA3.1(+) construct made in house

[2] = target: T2, mKOR (Mus musculus, UniProt P33534); assay: [125I]BNtxA radioligand competition binding, mouse KOR; conditions: mean ± SEM, n = 3; [125I]BNtxA; read-out: Ki ± SEM mKOR
T2 construct: expressed in transfected cells; membranes

[3] = target: T3, mDOR (Mus musculus, UniProt P32300); assay: [125I]BNtxA radioligand competition binding, mouse DOR; conditions: mean ± SEM, n = 3; [125I]BNtxA; read-out: Ki ± SEM mDOR
T3 construct: expressed in transfected cells

[4] = target: T1, mMOR; assay: CAMYEL BRET cAMP agonist assay at mMOR; assay type: cell-based; conditions: mMOR; for cAMP %: single replicates, source data Fig 6b, listed as C11-Br-7OH (24)
[5] = target: T4, hMOR (Homo sapiens, UniProt P35372); assay: CAMYEL BRET cAMP agonist assay at hMOR; assay type: cell-based; conditions: for cAMP %: hMOR, single replicates, source data Fig 6c, listed as C11-Br-7OH (24)
T4 construct: expressed in transfected cells; plasmid a gift from Dr. Nevin Lambert

[6] = target: T1, mMOR; assay: CAMYEL BRET antagonism assay at mMOR (inhibition of DAMGO); assay type: cell-based; conditions: for Antagonist activity at mMOR, raw signal (single replicate values): source data of Fig 8a and Table 5, listed as C11-Br-7OH (24);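 on Antagonist activity at mMOR, raw signal (single replicate values): BRET signal rises as cAMP falls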
[7] = target: T4, hMOR; assay: cell-based
[8] = target: T3, mDOR; assay: CAMYEL BRET cAMP agonist assay at mDOR; assay type: cell-based; conditions: Log[drug] (M) -5; single replicate values, Supplementary Figure 7B
[9] = Log[drug] (M) -13, cAMP inhibition as % of DAMGO

`CC[C@@H]1CN2CC[C@@]3(O)C(=Nc4cc(Br)cc(OC)c43)[C@@H]2C[C@@H]1/C(=C\OC)C(=O)OC` [11-Br-7OH (24), 11-Br-7OH] was tested, and the Ki [1] was 32.4 ± 1.4 nM, the Ki [2] was 81.1 ± 7.1 nM and the Ki [3] was 57.7 ± 6.7 nM. For the same compound, the cAMP % ([4]; Log[drug] (M) -5) was 9.013% and 6.73% and 3.065% and 5.631% and 1.057% and 0.04315% and 7.004% and 14.1806% and 4.634%, the cAMP % ([4]; Log[drug] (M) -6) was 5.8044% and 1.851% and 7.958% and 11.2571% and 3.589% and -1.762% and 6.0175% and 2.324% and 0.676% and the cAMP % ([4]; Log[drug] (M) -7) was -3.894% and -5.88% and 9.775% and 0.4502% and 1.258% and -1.708% and 1.616% and 1.4183% and 0.1827%. The cAMP % ([4]; Log[drug] (M) -8) was 1.549% and 0.05958% and 0.01199% and -1.248% and 2.618% and 1.046% and 3.634% and 0.478% and 3.5882%, the cAMP % ([4]; Log[drug] (M) -9) was 13.8914% and 20.7075% and 0.6937% and 7.1213% and -0.7937% and 5.232% and 4.985% and -2.644% and 5.425% and the cAMP % ([4]; Log[drug] (M) -10) was 10.1801% and 15.9014% and 8.011% and 8.742% and 7.948% and 6.092% and 2.318% and -3.2024% and 3.127%. The cAMP % ([4]; Log[drug] (M) -11) was 14.2135% and 8.364% and 1.552% and 8.664% and 7.808% and 10.8013% and 0.4413% and -1.089% and 0.6474%, the cAMP % [4, 9] was 6.348% and 21.1377% and 5.87% and 7.068% and 6.954% and 15.1455% and 5.75% and 5.389% and 3.7452% and the Emax ([4]; maximal inhibitory effect on cAMP levels relative to DAMGO) was < 10%. For the same compound, the EC50 [5] was 401 nM, the Emax [5] was 14% and the cAMP % ([5]; Log[drug] (M) -5) was 14.6374% and 26.5598% and 13.4593% and 12.3793% and 6.1202% and 3.5813% and 27.8092% and 3.652% and 6.737%. For the same compound, the cAMP % ([5]; Log[drug] (M) -6) was 18.6989% and 7.716% and 19.1803% and 0.2165% and 6.6608% and -0.2253% and 39.9126% and 18.2077% and 19.9668%, the cAMP % ([5]; Log[drug] (M) -7) was 12.0186% and 17.6725% and 14.4534% and 3.531% and 0.1326% and -1.3668% and -1.063% and 7.0578% and -1.6001% and the cAMP % ([5]; Log[drug] (M) -8) was 3.165% and 4.1647% and 7.3741% and 8.619% and 14.9301% and 11.6764% and -5.609% and -5.366% and 10.9759%. For the same compound, the cAMP % ([5]; Log[drug] (M) -9) was 2.317% and -1.298% and -1.019% and -2.259% and -7.165% and 10.2432% and 25.8292% and 21.9013% and 22.3959%, the cAMP % ([5]; Log[drug] (M) -10) was 4.34% and -1.394% and 4.504% and 1.432% and 0.8602% and -2.292% and 0.6443% and 11.4211% and 26.9944% and the cAMP % ([5]; Log[drug] (M) -11) was 6.752% and 9.529% and 9.016% and 11.4512% and -5.469% and 12.8282% and 13.3991% and 6.363% and 12.7423%. The cAMP % [5, 9] was 4.239% and 4.052% and 15.2175% and 4.859% and 6.721% and 16.8511% and 4.407% and 8.458% and 8.078%, the IC50 [6] was 550 nM and the “Antagonist activity at mMOR, raw signal (single replicate values)” value (“Antagonist activity at mMOR, raw signal” below) ([6]; Log[drug] (M) -5) was 0.01588 and 0.02679 and 0.02408 and 0.03029 and 0.008675 and 0.02853 and 0.02577 and 0.02856 and 0.04207. For the same compound, the “Antagonist activity at mMOR, raw signal” value ([6]; Log[drug] (M) -6) was 0.07568 and 0.07832 and 0.06492 and 0.08421 and 0.0634 and 0.06872 and 0.08325 and 0.0829 and 0.07977, the “Antagonist activity at mMOR, raw signal” value ([6]; Log[drug] (M) -7) was 0.1777 and 0.1753 and 0.1839 and 0.1921 and 0.1726 and 0.1908 and 0.1553 and 0.1528 and 0.1604 and the “Antagonist activity at mMOR, raw signal” value ([6]; Log[drug] (M) -8) was 0.2079 and 0.2137 and 0.206 and 0.2077 and 0.2162 and 0.1891 and 0.1751 and 0.1625 and 0.1706. For the same compound, the “Antagonist activity at mMOR, raw signal” value ([6]; Log[drug] (M) -9) was 0.1949 and 0.206 and 0.225 and 0.1941 and 0.2008 and 0.2159 and 0.1687 and 0.1594 and 0.1786, the “Antagonist activity at mMOR, raw signal” value ([6]; Log[drug] (M) -10) was 0.1894 and 0.2034 and 0.2214 and 0.2024 and 0.209 and 0.1982 and 0.1754 and 0.1654 and 0.1797 and the “Antagonist activity at mMOR, raw signal” value ([6]; Log[drug] (M) -11) was 0.2409 and 0.2089 (2×) and 0.2025 and 0.1938 and 0.2023 and 0.1798 and 0.1667 and 0.1739. For the same compound, the IC50 [7] was 1970 nM and the “Agonist activity of 7OH analogs at mDOR” value [8] was 13.8013 and 18.9976 and 33.2307 and 22.3286 and 13.395 and 16.9068 and 13.8361 and 11.2191 and 18.2655.

From publication PMC8219695 (Nature Communications, 2021)
